The source of these data is ChEMBL document CHEMBL1130683, “Aryl C-glycosides: physiologically stable glycomimetics of sialyl Lewis X” (Bioorg Med Chem Lett, 1998).

For one assay, the target named is T1, P-selectin (Homo sapiens, UniProt P16109).
T1 sequence (P16109 whole entry): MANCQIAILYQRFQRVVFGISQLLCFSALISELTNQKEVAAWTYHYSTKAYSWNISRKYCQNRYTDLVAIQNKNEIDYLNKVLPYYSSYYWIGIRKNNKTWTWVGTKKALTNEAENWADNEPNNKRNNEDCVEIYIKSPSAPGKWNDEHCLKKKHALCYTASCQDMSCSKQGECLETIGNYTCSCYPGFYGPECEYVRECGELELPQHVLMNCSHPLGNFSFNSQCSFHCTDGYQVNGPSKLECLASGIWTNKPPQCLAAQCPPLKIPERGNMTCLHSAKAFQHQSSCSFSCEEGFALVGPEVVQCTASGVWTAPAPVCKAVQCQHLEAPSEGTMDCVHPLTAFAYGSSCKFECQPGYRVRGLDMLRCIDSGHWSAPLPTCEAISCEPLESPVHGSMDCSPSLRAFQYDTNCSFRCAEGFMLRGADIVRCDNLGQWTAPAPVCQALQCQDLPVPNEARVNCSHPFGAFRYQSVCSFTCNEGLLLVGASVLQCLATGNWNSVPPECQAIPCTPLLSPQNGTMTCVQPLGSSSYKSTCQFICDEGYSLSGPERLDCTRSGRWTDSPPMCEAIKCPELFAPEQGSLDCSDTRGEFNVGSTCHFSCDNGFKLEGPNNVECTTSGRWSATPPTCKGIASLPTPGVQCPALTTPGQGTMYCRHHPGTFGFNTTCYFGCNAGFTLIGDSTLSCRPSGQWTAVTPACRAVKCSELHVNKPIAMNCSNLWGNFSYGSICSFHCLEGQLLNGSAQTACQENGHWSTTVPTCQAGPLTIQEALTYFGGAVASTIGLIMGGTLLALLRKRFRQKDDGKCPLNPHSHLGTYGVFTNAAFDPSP
The assay is described as follows: Inhibitory activity against P-selectin IgG chimeras binding to sLex coating 96 wells using competitive cell-free ELISA assay was determined. (An ELISA detects its analyte on a solid surface through an enzyme-linked reagent.)

For the next assay, the target named is T2, L-selectin (Homo sapiens, UniProt P14151).
T2 sequence (P14151 whole entry): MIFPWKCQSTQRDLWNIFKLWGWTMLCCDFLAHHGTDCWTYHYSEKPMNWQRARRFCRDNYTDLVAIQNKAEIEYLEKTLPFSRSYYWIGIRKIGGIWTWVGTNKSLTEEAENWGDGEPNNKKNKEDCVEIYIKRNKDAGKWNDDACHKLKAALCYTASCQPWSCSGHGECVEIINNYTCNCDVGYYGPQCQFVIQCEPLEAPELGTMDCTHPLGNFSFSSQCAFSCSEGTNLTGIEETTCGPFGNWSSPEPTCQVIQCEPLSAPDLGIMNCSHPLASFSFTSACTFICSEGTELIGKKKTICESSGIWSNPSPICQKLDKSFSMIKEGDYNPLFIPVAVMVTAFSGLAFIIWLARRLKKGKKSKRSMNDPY
In words: Inhibitory activity against L-selectin IgG chimeras binding to sLex coating 96 wells using competitive cell-free ELISA assay was determined.

Another assay addresses T3, E-selectin (Homo sapiens, UniProt P16581).
T3 sequence (P16581 whole entry): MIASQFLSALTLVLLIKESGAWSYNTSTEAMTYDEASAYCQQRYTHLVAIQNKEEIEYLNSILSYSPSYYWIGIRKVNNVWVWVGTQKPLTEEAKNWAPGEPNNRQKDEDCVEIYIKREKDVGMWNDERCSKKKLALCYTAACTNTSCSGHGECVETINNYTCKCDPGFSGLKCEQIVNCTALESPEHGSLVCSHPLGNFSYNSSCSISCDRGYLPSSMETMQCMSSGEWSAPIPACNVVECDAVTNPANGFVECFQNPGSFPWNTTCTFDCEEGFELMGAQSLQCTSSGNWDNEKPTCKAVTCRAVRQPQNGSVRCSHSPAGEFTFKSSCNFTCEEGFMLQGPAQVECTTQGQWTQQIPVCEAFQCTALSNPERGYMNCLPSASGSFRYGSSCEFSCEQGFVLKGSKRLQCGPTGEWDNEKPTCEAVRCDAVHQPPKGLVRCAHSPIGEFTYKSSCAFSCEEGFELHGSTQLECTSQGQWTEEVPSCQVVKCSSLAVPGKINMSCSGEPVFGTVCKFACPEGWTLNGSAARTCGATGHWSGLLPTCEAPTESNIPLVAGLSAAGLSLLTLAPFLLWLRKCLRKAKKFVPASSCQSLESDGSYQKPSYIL
In words: Inhibitory activity against Selectin E IgG chimeras binding to sLex coating 96 wells using competitive cell-free ELISA assay was determined.

pIC50: −log10 of the molar value.

Turning to `COc1ccc(CC(=O)O)cc1C1OC(C)C(O)C(O)C1O` (stereo unspecified), the pIC50 is 6.00 on P-selectin, 5.52 at L-selectin and below 3.00 on E-selectin.

For `COc1ccc(C2(C(=O)O)CCCCC2)cc1C1OC(CO)C(O)C(O)C1O` (stereo unspecified), the values for the pIC50 at P-selectin, at L-selectin and on E-selectin were 5.52, 6.00 and below 3.00, respectively.

As to `COc1ccc(C2(C(=O)O)CCCCC2)cc1C1OCC(O)C(O)C1O` (stereo unspecified), the figures for the negative-log IC50 (pIC50) on P-selectin, on L-selectin and on E-selectin were 5.10, 4.96 and below 3.00, respectively.

As to `COc1cc(CC(=O)O)c(C2OC(C)C(O)C(O)C2O)c(OC)c1OC` (stereo unspecified), the negative logarithm of the IC50 (pIC50) at P-selectin is 4.40; on L-selectin, 3.94; at E-selectin it was below 3.00.

As to `COc1ccc(CCCC(=O)O)cc1C1OC(C)C(O)C(O)C1O` (stereo unspecified), the figures for the pIC50 at P-selectin, on L-selectin and on E-selectin were 5.30, 3.77 and below 3.00, respectively.

Consider `COc1ccc(C2(C(=O)O)CCCCC2)cc1[C@H]1O[C@@H](C)[C@@H](O)[C@H](O)[C@@H]1O`, for which the negative logarithm of the IC50 (pIC50) at P-selectin was 5.15; on L-selectin, 3.97; on E-selectin it was below 3.00.

As to `COc1ccc(C2(C(=O)O)CCCCC2)cc1[C@H]1O[C@@H](C)[C@H](O)[C@H](O)[C@@H]1O`, the pIC50 at P-selectin is 4.66; on L-selectin it was 4.46; at E-selectin it was below 3.00.

As usually defined, the pIC50 is the negative decadic logarithm of the IC50, by convention in mol/L.
